Like-named read-outs stand apart in the source and are kept apart here.

Test [1] has as its target T1, SOS1 (Homo sapiens, UniProt Q07889).
T1 construct: HIS-SOS1cat (160 nM; Cytoskeleton, US); His (N); purchased Cytoskeleton
T1 sequence (Q07889 564-1049 limits assumed): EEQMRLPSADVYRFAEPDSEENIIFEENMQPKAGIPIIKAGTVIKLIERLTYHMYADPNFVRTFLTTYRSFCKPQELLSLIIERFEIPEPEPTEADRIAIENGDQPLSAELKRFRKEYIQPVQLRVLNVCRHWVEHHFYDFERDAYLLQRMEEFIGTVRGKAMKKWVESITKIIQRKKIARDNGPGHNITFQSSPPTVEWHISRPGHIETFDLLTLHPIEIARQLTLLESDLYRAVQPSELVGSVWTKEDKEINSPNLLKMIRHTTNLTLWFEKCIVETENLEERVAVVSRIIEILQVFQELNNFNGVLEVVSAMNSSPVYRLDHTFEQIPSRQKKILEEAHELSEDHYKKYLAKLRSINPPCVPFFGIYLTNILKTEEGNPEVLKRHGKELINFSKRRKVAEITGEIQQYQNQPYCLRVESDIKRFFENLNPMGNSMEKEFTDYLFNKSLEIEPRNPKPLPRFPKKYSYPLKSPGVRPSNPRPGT
Briefly: SOS-catalyzed nucleotide exchange assay (HTRF, SOS1-mediated GTP loading of KRAS G12D). It counts as biochemical. (Time-resolved FRET reads energy transfer from a long-lived donor to a nearby acceptor.)

The target of test [2] is T2, KRAS G12C::SOS1 (Homo sapiens, UniProt Q07889).
T2 construct: purchased CISBIO 64KRASG12PEH
T2 sequence (Q07889 1-1333): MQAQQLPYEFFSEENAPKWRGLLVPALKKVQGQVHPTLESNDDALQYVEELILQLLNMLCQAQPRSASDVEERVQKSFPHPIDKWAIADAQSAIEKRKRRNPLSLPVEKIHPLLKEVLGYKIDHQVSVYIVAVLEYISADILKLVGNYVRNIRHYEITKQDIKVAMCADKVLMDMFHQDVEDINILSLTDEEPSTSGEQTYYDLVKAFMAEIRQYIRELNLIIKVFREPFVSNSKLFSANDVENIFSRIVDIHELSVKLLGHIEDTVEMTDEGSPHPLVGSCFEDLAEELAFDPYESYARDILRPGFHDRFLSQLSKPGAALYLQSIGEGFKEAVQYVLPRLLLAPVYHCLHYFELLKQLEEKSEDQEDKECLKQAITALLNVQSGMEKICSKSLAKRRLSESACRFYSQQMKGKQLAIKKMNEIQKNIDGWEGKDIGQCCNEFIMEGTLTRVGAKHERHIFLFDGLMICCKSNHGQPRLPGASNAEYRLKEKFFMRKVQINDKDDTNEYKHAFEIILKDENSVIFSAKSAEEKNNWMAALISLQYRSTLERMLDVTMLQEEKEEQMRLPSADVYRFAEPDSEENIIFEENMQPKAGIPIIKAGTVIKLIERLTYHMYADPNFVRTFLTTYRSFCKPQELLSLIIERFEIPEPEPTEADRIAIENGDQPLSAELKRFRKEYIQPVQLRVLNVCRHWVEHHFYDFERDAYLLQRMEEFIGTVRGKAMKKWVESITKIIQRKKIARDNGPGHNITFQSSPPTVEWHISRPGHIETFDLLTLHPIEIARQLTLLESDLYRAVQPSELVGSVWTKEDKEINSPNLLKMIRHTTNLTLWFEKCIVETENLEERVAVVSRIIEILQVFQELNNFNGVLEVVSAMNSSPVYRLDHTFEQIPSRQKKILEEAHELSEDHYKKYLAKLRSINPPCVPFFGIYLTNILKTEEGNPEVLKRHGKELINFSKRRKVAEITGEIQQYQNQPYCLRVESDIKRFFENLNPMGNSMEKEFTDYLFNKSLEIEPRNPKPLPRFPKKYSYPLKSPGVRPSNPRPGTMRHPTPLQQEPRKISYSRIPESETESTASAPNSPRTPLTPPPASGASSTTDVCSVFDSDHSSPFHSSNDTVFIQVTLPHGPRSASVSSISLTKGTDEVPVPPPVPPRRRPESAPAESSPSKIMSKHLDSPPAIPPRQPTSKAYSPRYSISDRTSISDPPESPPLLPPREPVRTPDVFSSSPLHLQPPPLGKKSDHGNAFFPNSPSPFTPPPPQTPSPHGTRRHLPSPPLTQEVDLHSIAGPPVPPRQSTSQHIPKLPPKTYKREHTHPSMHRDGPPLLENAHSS
As to the kind of experiment: KRAS G12C::SOS1 protein-protein interaction (PPI) inhibition assay (HTRF). The format is binding. The method in brief: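 Compounds, at eight 3-fold dilutions from 3 µM, were mixed with GTP-loaded Tag1-KRAS G12C, Tag2-SOS1 and a terbium-cryptate donor plus XL665 acceptor antibody pair. After 2 h at room temperature, time-resolved FRET reported the KRAS–SOS1 interaction.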

The mark [3] stands for this setting: GST-KRAS G12D, HIS-SOS1cat, compound 128 pM to 10 µM, read-out: SOS-catalyzed nucleotide exchange assay.
Setting [4] is: 8 concentrations from 3 µM, three replicates, read-out: KRAS G12C::SOS1 PPI.

As for `COCC(F)(F)c1cccc([C@@H](C)NC(=O)c2ccc(=O)n(-c3cncc(-c4cnnn4C)c3)n2)c1F` [Example 1-10, (R)-N-(1-(3-(1,1-difluoro-2-methoxyethyl)-2-fluorophenyl)ethyl)-1-(5-(1-methyl-1H-1,2,3-triazol-5-yl)pyridin-3-yl)-6-oxo-1,6-dihydropyridazine-3-carboxamide], the IC50 in test [1] (setting [3]) is less than 50 nM; in test [2] (setting [4]) it was 50 to 150 nM.
Turning to `[2H]C([2H])([2H])n1nncc1-c1cnc(F)c(-n2nc(C(=O)N[C@H](C)c3cccc(C(F)(F)F)c3F)cc(C#N)c2=O)c1` [Example 3-5, 5-cyano-N-[(1R)-1-(2-fluoro-3-(trifluoromethyl)phenyl)ethyl]-1-[2-fluoro-5-(1-(methyl-trideuterio)-1H-1,2,3-triazol-5-yl)pyridin-3-yl]-6-oxo-1,6-dihydropyridazine-3-carboxamide], the IC50 in test [1] (setting [3]) and in test [2] (setting [4]) was 50 to 150 nM throughout.
In the case of `C[C@@H](NC(=O)c1ccc(=O)n(-c2cncc(-c3cnnn3C3CNC3)c2)n1)c1cccc(C(F)(F)F)c1F` [Example 19], the IC50 in test [1] (setting [3]) and in test [2] (setting [4]) was less than 50 nM in each case.
With `CCN1CC(n2nncc2-c2cncc(-n3nc(C(=O)N[C@H](C)c4cccc(C(F)(F)F)c4F)ccc3=O)c2)C1` [Example 20-9, (R)-1-(5-(1-(1-ethylazetidin-3-yl)-1H-1,2,3-triazol-5-yl)pyridin-3-yl)-N-(1-(2-fluoro-3-(trifluoromethyl)phenyl)ethyl)-6-oxo-1,6-dihydropyridazine-3-carboxamide], the IC50 in test [1] (setting [3]) and in test [2] (setting [4]) was less than 50 nM in each case.
Turning to `C[C@@H](NC(=O)c1ccc(=O)n(-c2cncc(-c3cnnn3C3CC3)c2)n1)c1cccc(C(F)F)c1F` [Example 1-51, N-[(1R)-1-[3-(difluoromethyl)-2-fluorophenyl]ethyl]-1-[5-(1-cyclopropyl-1H-1,2,3-triazol-5-yl)-3-pyridyl]-6-oxo-pyridazine-3-carboxamide], the IC50 was less than 50 nM in test [1] (setting [3]) and 50 to 150 nM in test [2] (setting [4]).
For the compound `C[C@@H](NC(=O)c1ccc(=O)n(-c2cnnc(-c3ccnn3C)c2)n1)c1cccc(C(F)(F)F)c1F` [Example 1-19, N-[(1R)-1-[2-fluoro-3-(trifluoromethyl)phenyl]ethyl]-1-[6-(2-methylpyrazol-3-yl)pyridazin-4-yl]-6-oxo-pyridazine-3-carboxamide], the IC50 in test [1] (setting [3]) and in test [2] (setting [4]) was more than 150 nM throughout.
Consider `CCn1nncc1-c1cc(-n2nc(C(=O)N[C@H](C)c3cccc(C(F)(F)F)c3F)ccc2=O)cnc1C` [Example 1-27, 1-[5-(3-ethyltriazol-4-yl)-6-methyl-3-pyridyl]-N-[(1R)-1-[2-fluoro-3-(trifluoromethyl)phenyl]ethyl]-6-oxo-pyridazine-3-carboxamide], for which the IC50 in test [1] (setting [3]) and in test [2] (setting [4]) was 50 to 150 nM throughout.
As for `C[C@@H](NC(=O)c1ccc(=O)n(-c2cncc(-c3c(Cl)nnn3C)c2)n1)c1cccc(C(F)F)c1F` [Example 13, N-{(R)-1-[3-(difluoromethyl)-2-fluorophenyl]ethyl}-1-[5-(4-chloro-1-methyl-1H-1,2,3-triazol-5-yl)-3-pyridyl]-6-oxo-1,6-dihydropyridazine-3-carboxamide], the IC50 in test [1] (setting [3]) was 50 to 150 nM; in test [2] (setting [4]), more than 150 nM.
`C[C@@H](NC(=O)c1ccc(=O)n(-c2cncc(-c3cnnn3C3CN(S(C)(=O)=O)C3)c2)n1)c1cccc(C(F)(F)F)c1F` [Example 20-12, (R)-N-(1-(2-fluoro-3-(trifluoromethyl)phenyl)ethyl)-1-(5-(1-(1-(methylsulfonyl)azetidin-3-yl)-1H-1,2,3-triazol-5-yl)pyridin-3-yl)-6-oxo-1,6-dihydropyridazine-3-carboxamide]: the IC50 in test [1] (setting [3]) and in test [2] (setting [4]) was less than 50 nM in each case.
Regarding `C[C@@H](NC(=O)c1ccc(=O)n(-c2cncc(-c3cnnn3C)n2)c1)c1cccc(C(F)(F)F)c1F` [Example 1-48, N-{(R)-1-[2-fluoro-3-(trifluoromethyl)phenyl]ethyl}-1-[6-(1-methyl-1H-1,2,3-triazol-5-yl)pyrazin-2-yl]-6-oxo-1,6-dihydropyridine-3-carboxamide], the IC50 in test [1] (setting [3]) and in test [2] (setting [4]) was more than 150 nM throughout.
As to `[2H]c1cc(C(=O)N[C@H](C)c2cccc(C(F)(F)F)c2F)nn(-c2cncc(-c3cnnn3C)c2)c1=O` [Example 1-38, N-{(R)-1-[2-fluoro-3-(trifluoromethyl)phenyl]ethyl}-1-[5-(1-methyl-1H-1,2,3-triazol-5-yl)-3-pyridyl]-6-oxo-1,6-dihydropyridazine-5-deuterio-3-carboxamide], the IC50 in test [1] (setting [3]) was 50 to 150 nM; in test [2] (setting [4]), less than 50 nM.
For `C[C@@H](NC(=O)c1ccc(=O)n(-c2cncc(-c3cnnn3C3CNC3)c2)n1)c1cccc(C(F)(F)CO)c1F` [Example 20-2, (R)-1-(5-(1-(azetidin-3-yl)-1H-1,2,3-triazol-5-yl)pyridin-3-yl)-N-(1-(3-(1,1-difluoro-2-hydroxyethyl)-2-fluorophenyl)ethyl)-6-oxo-1,6-dihydropyridazine-3-carboxamide], in that order: less than 50 nM and less than 50 nM.
For `C[C@@H](NC(=O)c1ccc(=O)n(-c2cncc(-c3cnnn3[C@@H]3CCNC3)c2)n1)c1cccc(C(F)(F)F)c1F` [Example 6-9, N-{(R)-1-[2-fluoro-3-(trifluoromethyl)phenyl]ethyl}-6-oxo-1-(5-(1-((R)-pyrrolidin-3-yl)-1H-1,2,3-triazol-5-yl)pyridin-3-yl)-1,6-dihydropyridazine-3-carboxamide] the same measures were less than 50 nM and less than 50 nM.
On to `C[C@@H](NC(=O)c1ccc(=O)n(-c2cncc(-c3cnnn3[C@@H]3CC3(F)F)c2)n1)c1cccc(C(F)(F)F)c1F` [Example 24, 1-[5-[3-[(1R)-2,2-difluorocyclopropyl]triazol-4-yl]-3-pyridyl]-N-[(1R)-1-[2-fluoro-3-(trifluoromethyl)phenyl]ethyl]-6-oxo-pyridazine-3-carboxamide], for which the IC50 in test [1] was 50 to 150 nM; in test [2] it was more than 150 nM.
Consider `C[C@@H](NC(=O)c1ccc(=O)n(-c2cc(-c3cnnn3C3CC3)cnc2F)n1)c1cccc(C(F)(F)CO)c1F` [Example 6-8], for which the IC50 in test [1] and in test [2] was less than 50 nM each time.
Take `CCc1cc(C(=O)N[C@H](C)c2cccc(C(F)(F)F)c2F)nn(-c2cncc(-c3cnnn3C)c2)c1=O` [Example 1-66, N-{(R)-1-[2-fluoro-3-(trifluoromethyl)phenyl]ethyl}-5-ethyl-1-[5-(1-methyl-1H-1,2,3-triazol-5-yl)-3-pyridyl]-6-oxo-1,6-dihydropyridazine-3-carboxamide]: the IC50 was 50 to 150 nM in test [1] (setting [3]) and less than 50 nM in test [2] (setting [4]).
Turning to `CC(=O)N1CCC(n2nncc2-c2cncc(-n3nc(C(=O)N[C@H](C)c4cccc(C(F)(F)F)c4F)ccc3=O)c2)CC1` [Example 20-7, (R)-1-(5-(1-(1-acetylpiperidin-4-yl)-1H-1,2,3-triazol-5-yl)pyridin-3-yl)-N-(1-(2-fluoro-3-(trifluoromethyl)phenyl)ethyl)-6-oxo-1,6-dihydropyridazine-3-carboxamide], the IC50 in test [1] (setting [3]) and in test [2] (setting [4]) was less than 50 nM in each case.
